Among the test systems are MALME-3M melanoma; K-562 leukemia; SNB-75 CNS; NCI/ADR-RES ovarian; A498 renal; A549 NSCLC; HCC-2998 colon; M14 melanoma; 786-0 renal; SK-MEL-5 melanoma; COLO 205 colon; SF-295 CNS; ACHN renal.
Holding throughout (test): NCI-60 cell line screen, 48 h

The values that follow come from PubChem BioAssay (NCI).

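Five concentrations, 48 hours, 96-well plates. TGI is the concentration that stops growth completely.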

In the case of `COC(=O)/N=[N+](\[O-])C(c1ccc(Cl)cc1)c1ccc(Cl)cc1`, the TGI in the test with MALME-3M melanoma, in the test with K-562 leukemia, with SNB-75 CNS, in the test with NCI/ADR-RES ovarian, with A498 renal and with A549 NSCLC was above 100 µM in each case. Besides, the TGI in the test with HCC-2998 colon was above 100 µM; in the test with M14 melanoma, above 100 µM; in the test with 786-0 renal, 96.5 µM; with SK-MEL-5 melanoma, 78.6 µM; in the test on COLO 205 colon it was 59.1 µM.

On to `COc1ccc(-c2c(C#N)c(N)n(C3OCC(O)C(O)C3O)c(=S)c2C#N)cc1` (configuration not stated), for which the TGI in the test on MALME-3M melanoma, in the test on K-562 leukemia, in the test with SF-295 CNS, in the test on SNB-75 CNS, with NCI/ADR-RES ovarian and with A498 renal was above 100 µM each time. Moreover, the TGI in the test on A549 NSCLC, in the test on HCC-2998 colon, in the test with M14 melanoma, in the test with 786-0 renal, with ACHN renal and in the test on SK-MEL-5 melanoma was above 100 µM each time.

Take `COc1ccc(C[C@H]2NC[C@H](OC(C)=O)[C@H]2OC(C)=O)cc1`: the TGI amounted to 0.561 µM in the test on MALME-3M melanoma; 51.6 µM in the test with K-562 leukemia; 4.26 µM in the test on SF-295 CNS; 0.362 µM in the test with SNB-75 CNS; 0.788 µM in the test on NCI/ADR-RES ovarian; 4.27 µM in the test on A498 renal. Moreover, the TGI came to 1.08 µM in the test with A549 NSCLC; 0.357 µM in the test on HCC-2998 colon; 0.328 µM in the test with M14 melanoma; 1.05 µM in the test on 786-0 renal; 0.853 µM in the test with ACHN renal; 0.345 µM in the test on SK-MEL-5 melanoma. The molecule further had a TGI with COLO 205 colon of 0.311 µM.

`[N-]=[N+]=NC1(c2ccccc2)C(=O)c2cccc3c4ccccc4n(c23)C1=O` (configuration not stated): the TGI in the test on MALME-3M melanoma, with SF-295 CNS, in the test with SNB-75 CNS, with NCI/ADR-RES ovarian, in the test on A498 renal and in the test with A549 NSCLC was above 100 µM each time. The TGI in the test with HCC-2998 colon is above 100 µM; with M14 melanoma, above 100 µM; with 786-0 renal it was above 100 µM; in the test on ACHN renal it was above 100 µM; in the test on SK-MEL-5 melanoma, above 100 µM; in the test on COLO 205 colon, 38.7 µM.

Take `N#Cc1c(Cl)cccc1Oc1ccc(S(=O)(=O)/N=C(\NO)Nc2ccc(Cl)cc2)cc1`: the TGI in the test with MALME-3M melanoma was found to be 33.9 µM; with K-562 leukemia it was 53.6 µM; in the test with SF-295 CNS, 32.3 µM; in the test with NCI/ADR-RES ovarian, 48 µM; with A498 renal it was 30.6 µM; in the test with A549 NSCLC, 32.2 µM. For the same molecule, the TGI in the test on HCC-2998 colon was determined as 29 µM; with M14 melanoma, 29.2 µM; in the test on 786-0 renal it was 26.5 µM; in the test with ACHN renal, 29.1 µM; with SK-MEL-5 melanoma, 31 µM; in the test on COLO 205 colon it was 33.6 µM.

Take `CC(SC(=S)N1CCCC1)C(=O)Nc1nnc(-c2ccc(Cl)cc2)o1` (configuration not stated): the TGI in the test with MALME-3M melanoma is 84.2 µM; in the test on K-562 leukemia, 78.7 µM; in the test with SNB-75 CNS it was above 100 µM; with NCI/ADR-RES ovarian, above 100 µM; in the test on A498 renal, above 100 µM; in the test with A549 NSCLC, above 100 µM. The TGI in the test with HCC-2998 colon was above 100 µM; in the test with M14 melanoma it was 37.1 µM; with 786-0 renal, 32.9 µM; with ACHN renal, above 100 µM; in the test with SK-MEL-5 melanoma, 82.8 µM; in the test with COLO 205 colon, above 100 µM.

Regarding `CC(=O)N1c2ccccc2C2=NN=C(N(C)C)SC21` (configuration not stated), the TGI in the test on MALME-3M melanoma came out at 12.9 µM; in the test with K-562 leukemia, 18.8 µM; with SF-295 CNS, 8.16 µM; in the test on SNB-75 CNS it was 26.4 µM; in the test with NCI/ADR-RES ovarian, 10.4 µM; in the test on A498 renal, 11.7 µM. Also, the TGI came out at 11.8 µM with A549 NSCLC; 12.5 µM in the test on HCC-2998 colon; 7.97 µM in the test with M14 melanoma; 12.5 µM with 786-0 renal; 10.4 µM with ACHN renal; 12.9 µM in the test with COLO 205 colon.

Take `CCOC(=O)Nn1cnnc1Cc1ccccc1`: the TGI in the test with MALME-3M melanoma, in the test with K-562 leukemia, with SF-295 CNS, in the test with NCI/ADR-RES ovarian, in the test with A498 renal and with A549 NSCLC was above 100 µM each time. Further, the TGI in the test on HCC-2998 colon, in the test on M14 melanoma, with 786-0 renal, in the test with ACHN renal, with SK-MEL-5 melanoma and with COLO 205 colon was above 100 µM in each case.

Regarding `O=[N+]([O-])/C(C(Cl)=C(Cl)Cl)=C(\Nc1cccc2cccnc12)Sc1ccccc1`, the TGI in the test on MALME-3M melanoma is 64.9 µM; in the test on K-562 leukemia it was 84.5 µM; in the test on SF-295 CNS it was 51.4 µM; with SNB-75 CNS, 72.2 µM; in the test with NCI/ADR-RES ovarian, 63.5 µM; in the test on A498 renal it was 69.4 µM. In addition, the TGI in the test on A549 NSCLC is above 100 µM; with HCC-2998 colon, above 100 µM; in the test with M14 melanoma it was above 100 µM; with 786-0 renal, 49.7 µM; in the test with ACHN renal it was 71.1 µM; with COLO 205 colon, 31.6 µM.

On to `c1ccc2c(c1)Sc1ccccc1N2CCCN1c2ccccc2Sc2ccccc21`, for which the TGI with MALME-3M melanoma, in the test on K-562 leukemia, in the test on SF-295 CNS, in the test with NCI/ADR-RES ovarian, in the test on A498 renal and in the test with A549 NSCLC was above 100 µM in each case. The TGI was above 100 µM in the test with HCC-2998 colon; above 100 µM in the test with M14 melanoma; 45.2 µM with 786-0 renal; above 100 µM in the test with ACHN renal; above 100 µM with SK-MEL-5 melanoma; above 100 µM in the test with COLO 205 colon.

On to `Cc1nc2ccc(S(=O)(=O)Nc3ccccn3)cc2c(=O)n1NS(=O)(=O)c1ccccn1`, for which the TGI in the test on MALME-3M melanoma, with K-562 leukemia, with SF-295 CNS, with SNB-75 CNS, in the test on NCI/ADR-RES ovarian and in the test on A498 renal was above 100 µM each time. Besides, the TGI in the test with HCC-2998 colon, with M14 melanoma, in the test with 786-0 renal, in the test on ACHN renal, in the test on SK-MEL-5 melanoma and with COLO 205 colon was above 100 µM each time.
